The source of these data is patent US9593139B2, “Compositions, methods, and kits comprising platinum compounds associated with a ligand comprising a targeting moiety” (priority 2013, dated 2017).

One assay deals with A2780 cells. As to the kind of experiment: MTT cytotoxicity assay, cisplatin-sensitive ovarian cancer cell line. In kind it is cell-based. The following applies: 72 h incubation. As for the experimental part: (§1) A2780 and A2780CP70 (ovarian cisplatin-sensitive and -resistant) cell lines were obtained from Fox Chase Cancer Center and cultured in RPMI-1640 medium supplemented with 10% fetal bovine serum (FBS) and 1% penicillin/streptomycin.
(§2) The colorimetric MTT assay was used to assess cytotoxicity. In a 96-well plate, 2000 cells per well were seeded in 100 μL growth medium and allowed to attach overnight. The growth media was then aspirated and replaced with 100 μL of growth medium containing varying concentrations of the platinum complexes. Six wells were used per concentration level. After 72 h, the platinum-containing media was aspirated and replaced with 200 μL of RPMI-1640 containing 0.67 mg/mL MTT. The cells were further incubated for 4 h. The MTT solution was removed, and the resulting purple formazan crystals were dissolved in 100 μL of 25:1 mixture of DMSO and aqueous ammonia. The absorbance was measured at 550 nm. The absorbance values were normalized to the Pt-free wells (100% cell viability) and are plotted versus platinum concentration. […] These experiments were repeated at least three times, and the reported IC50 values are the averages of these trials with the error estimated from the resulting standard deviations.

The test system of another assay is A2780CP70 cells. As to the kind of experiment: MTT cytotoxicity assay, cisplatin-resistant ovarian cancer cell line. It counts as cell-based. As to conditions: for IC50: A2780CP70 (cisplatin-resistant), MTT, 72 h incubation; for R.F. (resistance factor, IC50(resistant)/IC50(sensitive)): A2780CP70 vs A2780, 72 h incubation. How it is done: as §1, §2

For the molecule `O=C1[O][Pt-2]2([NH2+]C3CCCC[C@H]3[NH2+]2)[O]C1=O` (stereo partly drawn) [Oxaliplatin, (R,R-1,2-diaminocyclohexane)oxalatoplatinum(II)], the IC50 with A2780 cells came to 0.25 µM. Also, in the assay on A2780CP70 cells, the 50% inhibitory concentration (IC50) came out at 1 µM and the “R.F. (resistance factor, IC50(resistant)/IC50(sensitive))” value was determined as 4.1 ± 0.4.

Take `N.N.[Cl][Pt][Cl]` [cisplatin, cis-diamminedichloroplatinum(II)]: the IC50 with A2780 cells came to 0.6 ± 0.08 µM. In the assay with A2780CP70 cells, the IC50 turned out to be 5.2 ± 1.4 µM and the “R.F. (resistance factor, IC50(resistant)/IC50(sensitive))” value is given as 8.7 ± 2.6.

With [Pt(acac)(NH3)2](SO4)0.5, the IC50 in the assay on A2780 cells turned out to be 13.9 ± 1.9 µM. For the same molecule, in the assay on A2780CP70 cells, the IC50 is 122 ± 10 µM and the “R.F. (resistance factor, IC50(resistant)/IC50(sensitive))” value came to 8.8 ± 1.4.

“[Pt(succac)(NH3)2]-r(Fxr)3-CONH2 [Pt-MPP]” gave an IC50 in the assay with A2780 cells of 7.5 ± 0.3 µM. Also, in the assay on A2780CP70 cells, the half-maximal inhibitory concentration (IC50) worked out at 5 ± 1.4 µM and the “R.F. (resistance factor, IC50(resistant)/IC50(sensitive))” value worked out at 0.7±0.2.
